The source of these data is patent US6130215A, “Piperazinylalkylthiopyrimidine derivatives, pharmaceutical compositions containing the same and a process for the preparation of the novel compounds” (Egis Gyoyszergyar RT, priority 1995, dated 2000).

Usually IC50 stands for the concentration at which inhibition is half-maximal. A word on the Ki: it is a measure of affinity in units of concentration, obtained from inhibition or displacement.

Test [1] relates to rat stomach fundus smooth muscle. Briefly: Inhibition of serotonin-induced contractions of isolated rat stomach fundus smooth muscle. The test is classed as cell-based, rat (male Wistar). The conditions noted are these: 5-HT 10^-7 M, 37° C., read-out: Inhibition of 5-HT-evoked contractions of isolated rat stomach fundus, IC50. The protocol:
The experiments were performed on male Wistar rats weighing 350 to 400 g. The animals were fasted for 24 hours before the experiments, however, they were allowed to drink tap water ad libitum. The method used was a modified version of Vane et al. /J. Pharmac. Chemother., 12, 344 (1957)/. The rats were killed by decapitation and their stomach was removed, and 3 mm wide and 20 to 30 mm long strips were cut in parallel with the greatest curvature of the stomach. The strips were incubated for 60 minutes in a 6 ml Lucite chamber filled with Tyrode solution (NaCl 136.9 mM, KCl2.7 mM, CaCl2 1.8 mM, MgCl2 1.0 mM, NaHCO3 11.9 mM, glucose 5.6 mM, NaH2 PO4 0.4 mM) warmed to 37° C. and bubbled with a gas consisting of 95% of oxygen and 5% of carbon dioxide. The strips were stretched with 0.5 g during the 60 minutes equilibration time and were washed every 20 minutes. The tension was measured isometrically by a strain gauge (Hugo Sachs) and was recorded on a Graphtech Mark VII 3101 polygraph.
Three control contractions were evoked by 5-HT added to the bath in 10^-7 M concentration (C1, C2, C3).
The effects of the test compounds were determined in 5 increasing concentrations (T2, T3, T4, T5, and T6). After determining the effect of two concentrations of the test compounds, the control 5-HT response was checked after each test measurement.
(§1) IC50 was calculated by nonlinear curve fitting of the inhibitory effect of increasing concentrations of the test compound.

The target in test [2] is T1, 5-HT2A receptor (Oryctolagus cuniculus, UniProt G1SYA7).
T1 construct: The thoracic aorta segment after the aortic arch was removed; from tissue; host or cells: rabbit thoracic aorta, helical strips
As to the kind of experiment: 5-HT2A receptor antagonistic effect: inhibition of 5-HT-evoked contractions on isolated rabbit aortic strips. Type of test: cell-based, rabbit (New-Zealand, male, white). The conditions noted are these: 5-HT 10^-6 M; phenoxybenzamine 10^-8 M; tranylcypramine 10^-7 M; 10 minutes incubation. The protocol: New-Zealand, male, white rabbits weighing 2.0 to 2.5 kg were killed by a blow on the head. The thoracic aorta segment after the aortic arch was removed and placed into a Krebs' solution (NaCl 118 mM, KCl 4.6 mM, NaHCO3 25 mM, glucose 10.5 mM, […] 1 mM, KH2PO4 1 mM, CaCl2 2.6 mM). The aorta was carefully cleaned from fat and connective tissue, and was cut into 3 mm wide and 30 mm long helical strips. Four strips were obtained from each rabbit. The strips were equilibrated at 37° C. for 60 minutes in an organ chamber filled with Krebs' solution. The strips were also oxygenated by bubbling carbogen gas (5% of carbon dioxide and 95% of oxygen) through the solution. The strips were stretched by 1 g tension.
The contractions were measured by a Hugo Sachs K-30 type strain gauge, and were registered on a Multicorder type polygraph. During the last 40 minutes of the equilibration, the MAO enzym inhibitor tranylcypramine (10^-7 M) /chemical name: (±)-trans-2-phenylcyclopropylamine/ was also added to the bath.
Any alpha-adrenergic effects of the test compounds were eliminated by 10^-8 M of phenoxybenzamine /N-(2-chloroethyl)-N-(1-methyl-2-phenoxyethyl)benzylamine/ /Clancy et al., J. Pharm. Exp. Ther., 233, 761 (1985). Testing of the serotonergic antagonistic effect was started at the 90th minute of incubation. The stability and reproducibility of the contractile response of the aortic strips to serotonin was tested by two consecutive application and wash-out procedures of 10^-6 M concentration of 5-HT, 40 minutes apart. […] 30 minutes after the second testing, a preset concentration of the test compound was added to the bath, and, after a 10 minutes incubation time, the response to 10^-6 M of 5-HT was determined in the presence of the compound to be tested.
Two different concentrations of a given compound were tested on each aortic strip by the above method. Reproducibility of the control 5-HT-evoked response was checked between testing the two concentrations of the compound.
as §1

Another test concerns the target T2, 5-HT2C receptor (Sus scrofa, UniProt K7GSR7).
T2 construct: pig brain choroid plexus membrane preparation; from tissue; host or cells: pig brain choroid plexus membrane preparation
T2 sequence (K7GSR7 1-457): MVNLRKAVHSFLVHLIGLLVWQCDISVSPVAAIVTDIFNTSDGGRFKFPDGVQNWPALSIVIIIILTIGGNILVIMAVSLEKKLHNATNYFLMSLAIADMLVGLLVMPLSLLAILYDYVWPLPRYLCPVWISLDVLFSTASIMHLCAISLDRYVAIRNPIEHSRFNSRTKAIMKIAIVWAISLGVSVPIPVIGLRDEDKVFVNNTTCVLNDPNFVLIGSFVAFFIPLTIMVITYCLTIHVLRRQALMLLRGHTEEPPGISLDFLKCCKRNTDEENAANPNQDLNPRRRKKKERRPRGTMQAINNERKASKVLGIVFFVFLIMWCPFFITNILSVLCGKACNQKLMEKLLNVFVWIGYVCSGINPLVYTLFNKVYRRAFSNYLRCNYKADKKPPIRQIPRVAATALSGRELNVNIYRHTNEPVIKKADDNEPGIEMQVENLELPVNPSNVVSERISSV
As to the kind of experiment: 5-HT2C receptor binding ([3H]mesulergine, pig brain choroid plexus membrane preparation). The conditions noted are these: tritiated mesulergine, 37° C., read-out: Inhibition of receptor binding of the radioactive ligand, 5-HT2C (Ki). On the procedure: (§2) 5-HT2A and 5-HT2C receptor binding was measured according to the methods described by Leysen et al. /Mol. Pharmacol., 21, 301 (1981)/ and Pazos et al. /Eur. J. Pharmacol., 106, 539 (1985)/, respectively. 5-HT2A receptor binding was measured in rat brain frontal cortex membrane preparation using tritiated ketanserine /3-/2-(4-fluorobenzoyl)- -1-piperidinyl/ethyl-2,4-(1H,3H)-quinazoline-dione/(60-90 Ci/mmole) as ligand. 5-HT2C receptor binding was measured in pig brain choroid plexus membrane preparation using tritiated mesulergine /N'-/(8)-1,6-dimethyl-ergoline-8-yl/-N,N-dimethylsulfamide (70-85 Ci/mmole) as the ligand. Non-specific binding to 5-HT2A and 5-HT2C receptors were determined in the presence of 10 micro M cyproheptadine/4-(5H-dibenzo/a,d/cycloheptene-5-ylidene)-1-methylpiperidine/ and 1 micro M mianserine/1,2,3,4,10,14b-hexahydro-2-methyldibenzo-/c,f/pyrazino/1,2-a/azepine/, respectively. The final incubation volumes were 250 and 1000 microlitres. Samples were incubated for 15 and 30 minutes at 37° C. Incubation was stopped by adding 9 ml of ice-cold 50 mM tris(hydroxymethyl)-aminomethane hydrochloride (pH=7.7) to the reaction mixture. The samples were rapidly filtered through Whatman GF/B glass fiber filters using reduced pressure. Before use, the filters were soaked in a 0.05% poly-ethyleneimine solution for 2 to 3 hours. Radioactivity of the filters was determined by a scintillation spectrometer.

Test [3] deals with T3, 5-HT2A receptor (Rattus norvegicus, UniProt P14842).
T3 construct: rat brain frontal cortex membrane preparation; from tissue; host or cells: rat brain frontal cortex membrane preparation
As to the kind of experiment: 5-HT2A receptor binding ([3H]ketanserine, rat brain frontal cortex membrane preparation). The conditions noted are these: tritiated ketanserine, 37° C., read-out: Inhibition of receptor binding of the radioactive ligand, 5-HT2A (Ki). The protocol:
as §2

For the next test, the system named is human anxiety. Conditions: cited from earlier work.

T1 sequence (G1SYA7 1-469): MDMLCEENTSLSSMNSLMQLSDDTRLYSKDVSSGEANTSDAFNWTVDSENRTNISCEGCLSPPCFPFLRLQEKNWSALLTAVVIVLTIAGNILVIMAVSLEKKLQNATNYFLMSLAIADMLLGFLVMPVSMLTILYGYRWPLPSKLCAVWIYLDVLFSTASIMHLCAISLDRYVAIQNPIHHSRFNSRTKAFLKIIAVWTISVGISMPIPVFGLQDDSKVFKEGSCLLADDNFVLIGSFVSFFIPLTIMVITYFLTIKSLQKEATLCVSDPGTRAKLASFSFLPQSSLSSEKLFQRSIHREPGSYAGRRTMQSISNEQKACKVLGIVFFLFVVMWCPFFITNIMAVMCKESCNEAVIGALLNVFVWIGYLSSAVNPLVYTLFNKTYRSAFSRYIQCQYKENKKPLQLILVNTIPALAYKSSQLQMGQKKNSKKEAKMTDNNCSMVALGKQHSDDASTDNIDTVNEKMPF
T3 sequence (P14842 whole entry): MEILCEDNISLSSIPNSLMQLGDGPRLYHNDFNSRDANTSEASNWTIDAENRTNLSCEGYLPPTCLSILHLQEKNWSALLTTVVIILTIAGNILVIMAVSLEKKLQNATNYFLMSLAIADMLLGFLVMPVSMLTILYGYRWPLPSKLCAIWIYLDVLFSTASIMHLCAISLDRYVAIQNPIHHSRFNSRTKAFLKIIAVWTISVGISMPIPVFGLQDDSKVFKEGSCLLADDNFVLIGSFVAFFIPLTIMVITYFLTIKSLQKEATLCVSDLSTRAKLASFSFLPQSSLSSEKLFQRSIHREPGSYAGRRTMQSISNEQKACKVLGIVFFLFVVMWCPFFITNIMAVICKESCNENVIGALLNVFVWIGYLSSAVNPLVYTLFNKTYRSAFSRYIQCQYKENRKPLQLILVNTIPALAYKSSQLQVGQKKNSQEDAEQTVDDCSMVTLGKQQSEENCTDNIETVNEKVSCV

In the case of `COc1ccc(Cc2c(N)nc(SCCN3CCN(Cc4ccccc4)CC3)nc2N)cc1` [Example 22, 2-/2-(4-Benzyl-1-piperazinyl)ethylthio/-4,6-diamino-5-(4-methoxybenzyl)pyrimidine], the IC50 in test [1] came out at 320 nM; against 5-HT2A receptor [2] it was 420 nM. Moreover, the inhibition constant Ki was greater than 100 nM on 5-HT2C receptor and 56 nM at 5-HT2A receptor [3].

For `CN(C)c1ccc(Cc2c(N)nc(SCCN3CCN(Cc4ccc([N+](=O)[O-])cc4)CC3)nc2N)cc1` [Example 57, 2-[2-/4-(4-Nitrobenzyl)-1-piperazinyl/-ethylthio]-4,6-diamiiino-5-(4-dimethylamino-benzyl)pyrimidine], the IC50 (in test [1]; against 5-HT2A receptor [2]) was 890 nM in each case. In addition, the Ki on 5-HT2C receptor was 42 nM; on 5-HT2A receptor [3] it was greater than 100 nM.

In the case of `Cc1nc2sccn2c(=O)c1CCN1CCC(=C(c2ccc(F)cc2)c2ccc(F)cc2)CC1` [ritanserin, 6-[2-14-bis(4-fluorophenyl)methylene/-1-piperidinyl-ethyl]-7-7-methyl-5H-thiazolo/3,2-a/pirimidine-5-one], the “effectiveness for the treatment of different forms of human anxiety” value in the test with human anxiety is “effective for the treatment of different forms of human anxiety”.
